ChEMBL document CHEMBL1681727, “X-ray and molecular modelling in fragment-based design of three small quinoline scaffolds for HIV integrase inhibitors” (Bioorg Med Chem, 2011)

Assay: Inhibition of Human immunodeficiency virus integrase

| IC50 [µM] | Compound |
| --- | --- |
| 77 | CC(=O)NC1=CC(=O)c2ccc(C)nc2C1=O |
| > 100 | Cc1ccc2ccc(C(=O)O)c(O)c2n1 |
| 47 | Cc1ccc2c(O)c(C(=O)O)ccc2n1 |
